Read-outs that look alike come from different tables or passages of the source.
Legend:
[1] = test system: adult Musca domestica; test: Musca domestica test (MUSCDO); type: in vivo; settings: treated sponge, read-out: kill in % (flies killed)
Procedure: (§1) Solvent: dimethyl sulphoxide
Vessels containing a sponge treated with the active compound preparation of the desired concentration are populated with adult Musca domestica.
(§2) After the desired period of time, the kill in % is determined.

[2] = test system: larvae of the mustard beetle (Phaedon cochleariae); test: Phaedon test (PHAECO spray treatment); settings: Phaedon cochleariae, in Brassica rapa, foliar, read-out: effect in % (beetle larvae killed)
[3] = log P determination by HPLC (EEC Directive 79/831 Annex V.A8); type: physicochemical
Procedure: The measurements were carried out using an Agilent 1100 LC system with a 50*4.6 Zorbax Eclipse C18 1.8 μm column (oven temperature 55° C., flow rate 2.0 ml/min).
The following mobile phases were used:
Mobile phase A: acetonitrile+1000 μl of formic acid/l
Mobile phase B: Millipore water+900 μl of formic acid/l

[4] = test system: Lucilia cuprina larvae; test: Lucilia cuprina test (LUCICU); type: in vivo; settings: in Equus caballus, read-out: kill in % (larvae killed)
Procedure: as §1
Vessels containing horse meat treated with the active compound preparation of the desired concentration are populated with Lucilia cuprina larvae.
as §2

[5] = test system: Boophilus microplus; test: Boophilus microplus test (BOOPMI injection); type: in vivo; settings: Rhipicephalus microplus, read-out: effect in % (no fertile eggs laid)
Procedure: as §1
The solution of active compound is injected into the abdomen (Boophilus microplus), and the animals are transferred into dishes and kept in a climatised room. The activity is assessed by […] of fertile eggs.
100% means that none of the ticks has laid any fertile eggs.

[6] = test system: caterpillars of the armyworm (Spodoptera frugiperda); test: Spodoptera frugiperda test (SPODFR spray treatment); type: in vivo; settings: Spodoptera frugiperda, foliar, read-out: effect in % (caterpillars killed)
Text: (§3) Solvent: 78.0 parts by weight of acetone

[7] = test system: green peach aphid (Myzus persicae); test: Myzus test (MYZUPE spray treatment); type: in vivo; settings: Myzus persicae, foliar, read-out: effect in % (aphids killed)
Text: Solvent: 78 parts by weight of acetone
as §3

[8] = test system: two-spotted spidermite (Tetranychus urticae); test: Tetranychus urticae test; OP-resistant (TETRUR spray application); type: in vivo; settings: read-out: mortality in % (spider mites killed)
Text: Solvent: 78.0 parts by weight acetone
• 1.5 parts by weight dimethylformamide Emulsifier 0.5 part by weight alkylaryl polyglycol ether
French beans (Phaseolus vulgaris) which are heavily infested with all stages of the two-spotted spidermite (Tetranychus urticae) are sprayed with a preparation of the active compound at the desired concentration.

[9] = 20 μg/animal, injection into the abdomen
[10] = by HPLC according to EEC Directive 79/831 Annex V.A8, read-out: log P

In the case of `Cc1cc(I)cc(C(=O)NC(C)(C)C)c1NC(=O)c1cc(Cn2nnc(C(F)(F)C(F)(F)F)n2)nn1-c1ncccc1Cl` [Example 218], the pest or weed control at 100 ppm [1] is reported as ≥ 80%, the pest or weed control at 100 g/ha [2] is reported as ≥ 80% and the chromatographic logP ([3]; log P) is reported as 4.5. The pest or weed control at 100 ppm [4] was ≥ 80%, the pest or weed control at 0.02 mg [5, 9] was ≥ 80% and the pest or weed control at 100 g/ha ([6]; in Zea mays) was ≥ 80%.

With `CC(C)(C)NC(=O)c1cc(Cl)cc(Cl)c1NC(=O)c1cc(Cn2nnc(C(F)(F)C(F)(F)F)n2)nn1-c1ncccc1Cl` [Example 223] the pest or weed control at 100 ppm [1] was ≥ 80%, the pest or weed control at 100 g/ha [2] was ≥ 80% and the pest or weed control at 100 g/ha ([7]; in Brassica rapa) was ≥ 80%. For the same molecule, the chromatographic logP ([3]; log P) was 4.16, the pest or weed control at 100 ppm [4] was ≥ 80% and the pest or weed control at 0.02 mg [5, 9] was ≥ 80%. The pest or weed control at 100 g/ha ([6]; in Zea mays) was ≥ 80%.

For `Cc1cc(C#N)cc(C(N)=O)c1NC(=O)c1cc(Cn2nnc(C(F)(F)C(F)(F)C(F)(F)F)n2)nn1-c1ncccc1Cl` [Example 7], the pest or weed control at 100 ppm [1] was ≥ 80%, the pest or weed control at 100 g/ha [2] was ≥ 80% and the pest or weed control at 100 g/ha ([7]; in Brassica rapa) was ≥ 80%. For the same molecule, the chromatographic logP [3, 10] was 3.17, the pest or weed control at 100 ppm [4] was ≥ 80% and the pest or weed control at 0.02 mg [5] was ≥ 80%. For the same molecule, the pest or weed control at 100 g/ha ([6]; in Zea mays) was ≥ 80%.

In the case of `CNC(=O)c1cc(C#N)cc(C)c1NC(=O)c1cc(Cn2nnc(C(F)(F)C(F)(F)C(F)(F)F)n2)nn1-c1ncccc1Cl` [Example 5], the pest or weed control at 100 ppm [1] is reported as ≥ 80%, the pest or weed control at 100 g/ha [2] is reported as ≥ 80% and the pest or weed control at 100 g/ha ([7]; in Brassica rapa) is reported as ≥ 80%. For the same molecule, the chromatographic logP [3, 10] was 3.43, the pest or weed control at 100 ppm [4] was ≥ 80% and the pest or weed control at 0.02 mg [5] was ≥ 80%. The pest or weed control at 100 g/ha ([6]; in Zea mays) was ≥ 80%.

In the case of `CNC(=O)c1cc(Cl)cc(Cl)c1NC(=O)c1cc(Cn2nnc(C(F)(F)C(F)(F)F)n2)nn1-c1ncccc1Cl` [Example 222], the pest or weed control at 100 g/ha [2] is reported as ≥ 80%, the pest or weed control at 100 g/ha ([7]; in Brassica rapa) is reported as ≥ 80% and the chromatographic logP ([3]; log P) is reported as 3.34. For the same molecule, the pest or weed control at 100 ppm [4] was ≥ 80%, the pest or weed control at 0.02 mg [5, 9] was ≥ 80% and the pest or weed control at 100 g/ha ([6]; in Zea mays) was ≥ 80%.

For `CNC(=O)c1cc(Cl)cc(C)c1NC(=O)c1cc(Cn2nnc(C(F)(F)C(F)(F)C(F)(F)F)n2)nn1-c1ncccc1Cl` [Example 2], the pest or weed control at 100 ppm [1] was ≥ 80%, the pest or weed control at 100 g/ha [2] was ≥ 80% and the pest or weed control at 100 g/ha ([7]; in Brassica rapa) was ≥ 80%. For the same molecule, the chromatographic logP [3, 10] was 3.75, the pest or weed control at 100 ppm [4] was ≥ 80% and the pest or weed control at 0.02 mg [5] was ≥ 80%. The pest or weed control at 100 g/ha ([6]; in Zea mays) was ≥ 80%.

With `Cc1cc(Cl)cc(C(N)=O)c1NC(=O)c1cc(Cn2nnc(C(F)(F)C(F)(F)C(F)(F)F)n2)nn1-c1ncccc1Cl` [Example 3] the pest or weed control at 100 ppm [1] was ≥ 80%, the pest or weed control at 100 g/ha [2] was ≥ 80% and the chromatographic logP [3, 10] was 3.49. For the same molecule, the pest or weed control at 100 ppm [4] was ≥ 80%, the pest or weed control at 0.02 mg [5] was ≥ 80% and the pest or weed control at 100 g/ha ([6]; in Zea mays) was ≥ 80%.

With `CNC(=O)c1cc(Cl)cc(C)c1NC(=O)c1cc(Cn2nnnc2C(F)(F)F)nn1-c1ccc(Cl)cc1Cl` [Example 449] the mortality at 20 g/ha [8] was ≥ 80%, the pest or weed control at 100 g/ha [2] was ≥ 80% and the pest or weed control at 100 g/ha ([7]; application rate 100 g/ha, Chinese cabbage leaf discs) was ≥ 80%. The chromatographic logP ([3]; reversed-phase HPLC, Zorbax Eclipse C18 column, determined by HPLC according to EEC Directive 79/831 Annex V.A8, read-out: log P) was 3.64 and the pest or weed control at 100 g/ha ([6]; application rate 100 g/ha, maize leaf discs) was ≥ 80%.

With `Cc1cc(Cl)cc(C(=O)NC(C)C)c1NC(=O)c1cc(Cn2nnc(C(F)(C(F)(F)F)C(F)(F)F)n2)nn1-c1ncccc1Cl` [Example 363] the mortality at 20 g/ha [8] was ≥ 80%, the pest or weed control at 100 g/ha [2] was ≥ 80% and the chromatographic logP ([3]; log P) was 4.21. The pest or weed control at 100 g/ha ([6]; in Zea mays) was ≥ 80%.

In the case of `CNC(=O)c1cc(Cl)cc(C)c1NC(=O)c1cc(Cn2nnc(C(F)(F)F)n2)nn1-c1ncccc1Cl` [Example 11], the pest or weed control at 100 ppm [1] is reported as ≥ 80%, the pest or weed control at 100 g/ha [2] is reported as ≥ 80% and the pest or weed control at 100 g/ha ([7]; in Brassica rapa) is reported as ≥ 80%. The chromatographic logP ([3]; log P) was 3.05, the pest or weed control at 100 ppm [4] was ≥ 80% and the pest or weed control at 0.02 mg [5, 9] was ≥ 80%. The pest or weed control at 100 g/ha ([6]; in Zea mays) was ≥ 80%.

For `Cc1cc(C#N)cc(C(=O)NC2CC2)c1NC(=O)c1cc(Cn2nnc(C(F)(F)F)n2)nn1-c1ncccc1Cl` [Example 13], the pest or weed control at 100 ppm [1] was ≥ 80%, the pest or weed control at 100 g/ha [2] was ≥ 80% and the pest or weed control at 100 g/ha ([7]; in Brassica rapa) was ≥ 80%. For the same molecule, the chromatographic logP ([3]; log P) was 2.84, the pest or weed control at 100 ppm [4] was ≥ 80% and the pest or weed control at 0.02 mg [5, 9] was ≥ 80%. For the same molecule, the pest or weed control at 100 g/ha ([6]; in Zea mays) was ≥ 80%.

For `Cc1cc(C#N)cc(C(=O)NC(C)C)c1NC(=O)c1cc(Cn2nnc(C(F)(F)F)n2)nn1-c1ncccc1Cl` [Example 10], the pest or weed control at 100 ppm [1] was ≥ 80%, the pest or weed control at 100 g/ha [2] was ≥ 80% and the chromatographic logP ([3]; log P) was 3.07. For the same molecule, the pest or weed control at 100 ppm [4] was ≥ 80%, the pest or weed control at 0.02 mg [5, 9] was ≥ 80% and the pest or weed control at 100 g/ha ([6]; in Zea mays) was ≥ 80%.

Reference: patent US8324390B2, “Tetrazole-substituted anthranilamides as pesticides” (Bayer CropScience AG, priority 2008, dated 2012)
